Here are results for one compound from patent US11274332B2, “Methods of administering 3,4-diaminopyridine” (SERB SA, priority 2011, dated 2022).

A short description of data set [1]: Rat PK study, IV and oral TID amifampridine phosphate (Example 4). In kind it is in vivo. As to conditions: rat plasma. Here is the method:
The objective of this study was to determine the absolute bioavailability of amifampridine phosphate and the pharmacokinetics of amifampridine and its 3-N-acetyl metabolite upon single-dose IV and single-day oral dose (TID) administration.
Amifampridine phosphate was administered by IV bolus at 0.8 mg/kg (in saline) to 6 rats/sex and by oral gavage (in water) TID (approximately 6 hours apart) at dose levels of 2, 8, and 25 mg/kg/dose (equivalent to 6, 24, and 75 mg/kg/day) to 12 rats/sex/group, with oral Dose 1 given to fasted rats and Dose 2 and 3 with food ad libitum. For IV bolus dose and oral Dose 1 (dose administration No. 1), blood samples were collected from three animals/sex/timepoint at predose and 0.083 (IV only), 0.17, 0.25, 0.33, 0.5, 0.75, 1, 1.25 (IV only), 1.5, 2, 2.5, 3, and 6 hours post-dose; 0.17, 0.5, and 6 hours following the second oral dose (dose administration No. 2); and 0.17, 0.25, 0.33, 0.5, 0.75, 1, 1.5, 2, 3, 4, 6, 8, and 10 hours following the third oral dose (dose administration No. 3). The second and third oral doses were given at 6 and 12 hours, respectively, after the first dose. LC-MS/MS was used to quantify amifampridine, 3-N-acetyl and 4-N-acetyl amifampridine metabolites in rat plasma samples. […] Noncompartmental analysis was applied to the mean plasma amifampridine and 3-N-acetyl metabolite concentration data for male and female rats. […]

The target of data set [2] is T1, hKv1.7 (Homo sapiens, UniProt Q96RP8).
T1 construct: expressed in transfected cells; host or cells: CHO cells (transient transfection)
T1 sequence (Q96RP8 whole entry): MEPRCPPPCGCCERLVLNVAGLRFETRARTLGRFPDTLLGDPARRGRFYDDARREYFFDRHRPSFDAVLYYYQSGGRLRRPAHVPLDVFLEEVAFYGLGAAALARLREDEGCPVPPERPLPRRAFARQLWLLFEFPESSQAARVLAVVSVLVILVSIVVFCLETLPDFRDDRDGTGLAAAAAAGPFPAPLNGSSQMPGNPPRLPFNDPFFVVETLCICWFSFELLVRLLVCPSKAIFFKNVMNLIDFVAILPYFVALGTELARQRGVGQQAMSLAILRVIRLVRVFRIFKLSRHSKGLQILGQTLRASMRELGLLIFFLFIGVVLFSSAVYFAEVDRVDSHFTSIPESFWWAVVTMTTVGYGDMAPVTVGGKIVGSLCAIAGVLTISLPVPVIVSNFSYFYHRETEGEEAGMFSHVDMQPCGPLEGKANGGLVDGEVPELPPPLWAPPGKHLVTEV
Description: Whole cell patch clamp inhibition of hKv1.7 current in transiently transfected CHO cells (Example 5). As to conditions: hKv1.7, up to 3000 μM. In kind it is cell-based. The protocol:
Chemicals used in solution preparation were purchased from Sigma-Aldrich (St. Louis, Mo.), unless otherwise noted, and were of ACS reagent grade purity or higher. Stock solutions of each test article (100.104 mM and 1.00 mM 3,4-DAP phosphate and 100.023 mM and 336.335 mM N-(4-aminopyridin-3-yl) acetamide HCl) were prepared in sterile water, stored refrigerated and used within one day. […] All test article solutions contained 3% sterile water. The test articles were prepared in sufficient volume to run the assay (typically 50 mL).
CHO cells, transiently transfected with hKv1.7, were cryopreserved in 90% FBS and 10% DMSO. Frozen vials of cells were thawed rapidly in a 37° C. water bath. Cells were transferred to a 15 mL conical tube, 10 mL of growth media (Ham's/F12-PS/10% FBS) was added, the suspension was gently mixed and the tube was centrifuged at approximately 250×g for 5 min. The medium was removed, the cell pellet was resuspended in 20 mL of medium, and cells were triturated to disperse cell clumps. For electrophysiology use, 2 mL of the cell suspension was plated in each 35 mm cell culture dish. Recording began 2-3 hours after plating once the cells settled out of the media and adhered to the bottom of the culture dish. […]
Cells were transferred to the recording chamber and superfused with vehicle control solution. […] Onset and steady state inhibition of hKv1.7 current due to the test article was measured using a pulse pattern with fixed amplitudes (depolarization: +10 mV amplitude, 300 ms duration) repeated at 10-second intervals from a holding potential of −80 mV. Current amplitude was measured at the end of the step to +10 mV. Current was monitored until a new steady state was achieved. […] The IC50 for sustained current was calculated for 3,4-DAP phosphate salt.
For 3,4-DAP phosphate salt, the concentration-response relationship was evaluated at seven concentrations (1, 10, 30, 100, 300, 1000 and 3000 μM) and for N-(4-aminopyridin-3-yl) acetamide HCl salt, the concentration-response relationship was evaluated at three concentrations (100, 1000 and 3000 μM).
In general terms: Patch clamp records ionic current or voltage across a cell membrane.

Molecules are shown by their SMILES.

Regarding `CC(=O)Nc1cnccc1N` [3-N-acetyl amifampridine, N-(4-aminopyridin-3-yl)acetamide], in data set [1], the “abundance of major circulating metabolite relative to 3,4-DAP” value is listed as “more abundant than 3,4-DAP”. Besides, the “activity on K+ channel” value in data set [2] was “inactive”; in data set [2] (listed as N-acetyl metabolite), “not active”.
